In brackets after ≈: the same amount, converted by molar mass. Starred links: 1 amine or outer side, 2 acyl side, 3 side chain; linkers in the order of their positions; H or OH if unused. Positions of bridges follow the written chain, without caps; N, C: chain ends. Non-standard residues stand in square brackets, D forms with d. Residues, ends and D or L forms follow the SMILES beside them. *: point of attachment. Orn(4R-OH,5R-OCH2CH2NMe3+) = C[N+](C)(C)CCO[C@@H](N[*:3])[C@H](O)C[C@H](N[*:1])C(=O)[*:2]; hTyr(3S-OH,4S-OH,3'-OSO3H) = N[C@H](C(=O)O)[C@H](O)[C@@H](O)c1ccc(O)c(OS(=O)(=O)O)c1; pTerphenylCO(4''-OnC5H11) = CCCCCOc1ccc(-c2ccc(-c3ccc(C(=O)*)cc3)cc2)cc1; Orn(4R-OH,5R-OH) = O=C([C@H](C[C@@H](O)[C@@H](O)N[*:3])N[*:1])[*:2]; hTyr(3S-OH,4S-OH) = N[C@H](C(=O)O)[C@H](O)[C@@H](O)c1ccc(O)cc1; Pro(3S-OH,4S-Me) = C[C@H]1CN[C@H](C(=O)O)[C@H]1O; X1 = CCCCCOc1ccc(-c2cc(-c3ccc(C(=O)*)cc3)no2)cc1; Gln(3R-OH) = NC(=O)C[C@@H](O)[C@H](N)C(=O)O; Hyp = O=C(O)[C@@H]1C[C@@H](O)CN1
Key:
C. parapsilosis CP02 = experiment: Broth microdilution MIC (CLSI), Examples 3 and 4; settings: Lodderomyces parapsilosis, CP02, 24 h, read-out: Broth MIC
Description: Antifungal susceptibility testing. Candida strains were cultured aerobically at 35° C. on SDA plates or in RPMI 1640 broth (pH 7.0). […] MIC assays were performed in triplicate.

C. glabrata [1] = experiment: Mutant prevention concentration (MPC) determination; format: cell-based, Candida glabrata; settings: wild-type isolates; 24 hr, ~1×10^7 CFU/mL
C. albicans [2] = experiment: as above; format: cell-based, Candida albicans; settings: wild-type isolates; 24 hr, ~1×10^7 CFU/mL
C. parapsilosis = experiment: Antifungal susceptibility testing (CLSI M27-S4); settings: WT (19 isolates); 24 hr
Description: (§1) Antifungal susceptibility testing. Antifungal susceptibility testing was performed in triplicate for a collection of 95 Candida strains (20 C. albicans, 20 C. glabrata, 2 C. dubliniensis, 15 C. krusei, 19 C. parapsilosis, and 19 C. tropicalis) that included 30 isolates showing an echinocandin resistance (ER) phenotype (caspofungin-resistant) in accordance with the guidelines described in the Clinical and Laboratory Standards Institute (CLSI) document M27-S4. […] Stock solutions of the drugs were kept at −86° C.

[3] = test system: C. albicans ATCC 90028 and DPL22; experiment: MIC of strains used in mouse study (Table 3); settings: Candida albicans
C. glabrata [4] = experiment: Antifungal susceptibility testing (CLSI M27-S4), WT and echinocandin-resistant isolates; settings: for % of ER isolates with an MIC: C. glabrata ER isolates (n=11); for MIC median (range): 24 hr
Description: as §1

C. albicans [5] = experiment: as above; settings: for % of ER isolates with an MIC of ≤0.5 mg/L: C. albicans ER isolates; for MIC median (range): 24 hr
Description: as §1

C. dubliniensis = experiment: as above; settings: 24 hr
Description: as §1

[6] = test system: 1,3-β-D-glucan synthase from C. albicans; experiment: Glucan synthase (GS) inhibition assay
C. krusei = experiment: Antifungal susceptibility testing (CLSI M27-S4), WT and echinocandin-resistant isolates; settings: 24 hr
Description: as §1

[7] = test system: Aspergillus fumigatus (ATCC 13073); experiment: Neutropenic mouse model of disseminated aspergillosis, survival; format: in vivo; settings: one dose; Compound 1 2 mg/kg IV or IP, AMB 2 mg/kg IP; 10 days; P<0.05
[8] = test system: Candida albicans (Strain R303); experiment: MIC of dose-fractionation strain
Murine protein binding = format: in vitro ADME; settings: mouse, plasma
[9] = Pharmacokinetic study in healthy ICR mice, single IP dose; settings: 1 to 16 mg/kg IP
Description: Pharmacokinetic Study. […] The following doses, at three mice per dose, were studied: 1, 4, and 16 mg/kg.

[10] = Phase 1 dose-escalation trials, pharmacokinetics after IV infusion; format: in vivo, human
Description: PK was assessed using plasma and urine samples collected over 21 days. Safety and tolerability were assessed by adverse events (AEs), vital signs, physical exams, electrocardiograms (ECGs), and safety laboratory values up to 21 days after dosing.

[11] = Solubility of test articles in vehicle, visual observation (Table 22); format: physicochemical; settings: visual observation
Description: Test Articles. […] Amphotericin B and fluconazole were in powder form. Amphotericin B was dissolved in 0.9% NaCl. Fluconazole was dissolved in water (WFI: water for injection).

[12] = test system: C. krusei ATCC 6258, ATCC 14243; experiment: Time-kill assay in vagina-simulative medium pH 4.0 (Table 20); format: cell-based, Candida krusei
C. albicans ATCC 44858 = experiment: MIC against C. albicans ATCC 44858 at pH 4; format: cell-based; settings: Candida albicans, ATCC44858, pH 4
[13] = test system: Candida albicans (Strain R303); experiment: Dose-fractionation study in neutropenic ICR mice, kidney fungal burden (Table 24); settings: 2 mg/kg as a single dose IP; 168 hours
[14] = Pharmacokinetic-pharmacodynamic analyses, PK model free-drug plasma exposures; set-up: species or system mouse
Description: Pharmacokinetic-Pharmacodynamic Analyses. Using the data collected from the PK study, a PK model was developed in S-ADAPT. Using the developed PK model, concentration-time profiles and AUC0-168h values were computed for each dosing regimen administered in the dose-fractionation study. […] Relationships between the change in logio CFU from start of therapy and AUC0-168h were explored.

[15] = Modeling of total plasma concentrations versus MPC; settings: IV administration of 50 mg; calculated by modeling of pharmacokinetic data
[16] = test system: C. albicans ATCC 44858, DPL001, R357; experiment: Time-kill assay in vagina-simulative medium pH 4.0 (Table 16); format: cell-based, Candida albicans
[17] = test system: C. tropicalis CTO2, MMX 7255, MMX 7525; experiment: Time-kill assay in vagina-simulative medium pH 4.0 (Table 18); format: cell-based, Candida tropicalis
[18] = test system: C. glabrata CG01, ATCC 200918, MMX 7070; experiment: Time-kill assay in vagina-simulative medium pH 4.0 (Table 17); format: cell-based, Candida glabrata
[19] = test system: C. parapsilosis CP02, CP01, MMX 7370; experiment: Time-kill assay in vagina-simulative medium pH 4.0 (Table 19); format: cell-based, Candida parapsilosis
[20] = ATCC90028, ATCC 90028, Fks1p WT, Fks2p WT
[21] = ATCC90028, DPL22, Fks1p S645P/S
[22] = IV infusion, healthy human subjects

SMILES: CC[C@H](C)C[C@H](C)CCCCCCCCC(=O)N[C@H]1C[C@@H](O)[C@@H](NCCN)NC(=O)[C@@H]2[C@@H](O)CCN2C(=O)[C@H]([C@H](O)CCN)NC(=O)[C@H]([C@H](O)[C@@H](O)c2ccc(O)cc2)NC(=O)[C@@H]2C[C@@H](O)CN2C(=O)[C@H]([C@@H](C)O)NC1=O [CAS, caspofungin]
- MIC (C. parapsilosis CP02): 0.5 µg/mL (≈ 0.457 µM)

SMILES: CCCCCOc1ccc(-c2ccc(-c3ccc(C(=O)N[C@H]4C[C@@H](O)[C@@H](O)NC(=O)[C@@H]5[C@@H](O)[C@@H](C)CN5C(=O)[C@H]([C@@H](C)O)NC(=O)[C@H]([C@H](O)[C@@H](O)c5ccc(O)cc5)NC(=O)[C@@H]5C[C@@H](O)CN5C(=O)[C@H]([C@@H](C)O)NC4=O)cc3)cc2)cc1 [ANID, anidulafungin] ({pTerphenylCO(4''-OnC5H11)}-[Orn(4R-OH,5R-OH)]T[Hyp][hTyr(3S-OH,4S-OH)]T[Pro(3S-OH,4S-Me)]; lactam 1-C)
- MIC (C. parapsilosis CP02): 4 µg/mL (≈ 3.51 µM)

SMILES: CCCCCOc1ccc(-c2cc(-c3ccc(C(=O)N[C@H]4C[C@@H](O)[C@@H](O)NC(=O)[C@@H]5[C@@H](O)[C@@H](C)CN5C(=O)[C@H]([C@H](O)CC(N)=O)NC(=O)[C@H]([C@H](O)[C@@H](O)c5ccc(O)c(OS(=O)(=O)O)c5)NC(=O)[C@@H]5C[C@@H](O)CN5C(=O)[C@H]([C@@H](C)O)NC4=O)cc3)no2)cc1 [MCF, micafungin] (X1-[Orn(4R-OH,5R-OH)]T[Hyp][hTyr(3S-OH,4S-OH,3'-OSO3H)][Gln(3R-OH)][Pro(3S-OH,4S-Me)]; lactam 1-C)
- MPC (C. glabrata [1]): 16 µg/mL
- MPC (C. albicans [2]): 16 µg/mL
- MIC median (range) (C. parapsilosis): 4 (1-4) mg/L
- MIC [3, 20]: < 0.03 µg/mL
- MIC [3, 21]: 0.5 µg/mL
- % of ER isolates with an MIC (C. glabrata [4]): 63%
- MIC median (range) (C. glabrata [4]; ER (11 isolates)): 0.50 (0.06-4) mg/L
- MIC median (range) (C. glabrata [4]; WT (9 isolates)): <0.03 (<0.03)^ mg/L
- % of ER isolates with an MIC of ≤0.5 mg/L (C. albicans [5]): 40%
- MIC median (range) (C. albicans [5]; ER (10 isolates)): 0.50 (0.03-4) mg/L
- MIC median (range) (C. albicans [5]; WT (10 isolates)): <0.03 (<0.03)^ mg/L
- MIC median (range) (C. dubliniensis; ER (1 isolate)): 0.03 µg/mL (≈ 0.0236 µM)
- MIC median (range) (C. dubliniensis; WT (1 isolate)): 0.03 µg/mL (≈ 0.0236 µM)
- fold increase in IC50 compared to the WT ([6]; F641S mutant): 100 fold
- fold increase in IC50 compared to the WT ([6]; S645P mutant): 144 fold
- MIC median (range) (C. krusei; ER (4 isolates)): 1.00 (0.03-8) mg/L
- MIC median (range) (C. krusei; WT (11 isolates)): 0.12 (0.03-0.25) mg/L

SMILES: CCCCCOc1ccc(-c2ccc(-c3ccc(C(=O)N[C@H]4C[C@@H](O)[C@@H](OCC[N+](C)(C)C)NC(=O)[C@@H]5[C@@H](O)[C@@H](C)CN5C(=O)[C@H]([C@@H](C)O)NC(=O)[C@H]([C@H](O)[C@@H](O)c5ccc(O)cc5)NC(=O)[C@@H]5C[C@@H](O)CN5C(=O)[C@H]([C@@H](C)O)NC4=O)cc3)cc2)cc1 [Compound 1] ({pTerphenylCO(4''-OnC5H11)}-[Orn(4R-OH,5R-OCH2CH2NMe3+)]T[Hyp][hTyr(3S-OH,4S-OH)]T[Pro(3S-OH,4S-Me)]; lactam 1-C)
- survival versus vehicle [7]: significantly longer survival than vehicle
- MIC [8]: 0.125 µg/mL
- MPC (C. glabrata [1]): 16 µg/mL
- fraction unbound (Murine protein binding): 0.009
- PK linearity over the dose range [9]: linear PK
- plasma exposures versus dose ([10]; 50-400 mg IV): dose-proportional plasma exposures
- apparent clearance [10, 22]: < 0.3 L/h
- urinary excretion [10, 22]: < 1%
- half-life ([10]; plasma, IV infusion, healthy human subjects, read-out: half-life (t1/2)): > 80 h
- MPC (C. albicans [2]): 16 µg/mL
- MIC median (range) (C. parapsilosis): 2 (2-4) mg/L
- Solubility ([11]; vehicle 10% DMSO/1% Tween 20 in 0.9% NaCl, formulation 0.3, 1 and 3 mg/mL): S
- time at which cidality (≥3-log reduction in CFU) was achieved ([12]; two C. krusei strains, all concentrations (2-128 μg/mL)): < 24 h
- MIC [3, 20]: < 0.03 µg/mL
- MIC [3, 21]: 0.5 µg/mL
- MIC (C. albicans ATCC 44858): 0.25 µg/mL
- % of ER isolates with an MIC (C. glabrata [4]): 18%
- MIC median (range) (C. glabrata [4]; ER (11 isolates)): 1.00 (0.12-4) mg/L
- MIC median (range) (C. glabrata [4]; WT (9 isolates)): 0.06 (0.03-0.12) mg/L
- log10 CFU reduction from baseline [13]: greater than 2 log10 CFU
- % of ER isolates with an MIC of ≤0.5 mg/L (C. albicans [5]): 60%
- MIC median (range) (C. albicans [5]; ER (10 isolates)): 0.50 (0.06-2) mg/L
- MIC median (range) (C. albicans [5]; WT (10 isolates)): <0.03 (<0.03)^ mg/L
- MIC median (range) (C. dubliniensis; ER (1 isolate)): 0.03 µg/mL
- MIC median (range) (C. dubliniensis; WT (1 isolate)): 0.03 µg/mL
- Free-drug plasma AUC0-24 ([14]; 2 mg/kg as a single dose): 65.4 ng·h/mL
- time free-drug plasma concentrations of single dose remain above those of the daily regimen ([14]; 2 mg/kg total dose): 48 h
- time free-drug plasma concentrations of single dose remain above those of the twice weekly regimen ([14]; 2 mg/kg total dose): 84 h
- Free-drug plasma AUC0-24 ([14]; 2 mg/kg total, daily regimen): 9.48 ng·h/mL
- Free-drug plasma AUC0-24 ([14]; 2 mg/kg total, twice weekly regimen): 30.3 ng·h/mL
- total plasma concentration generated [15]: > 16 µg/mL
- MIC median (range) (C. krusei; ER (4 isolates)): 0.50 (<0.03-4) mg/L
- MIC median (range) (C. krusei; WT (11 isolates)): 0.03 (<0.03-0.06) mg/L

SMILES: OC(Cn1cncn1)(Cn1cncn1)c1ccc(F)cc1F [FLU, fluconazole]
- Susceptibility to FLU (S/R) ([16]; C. albicans ATCC 44858): S
- Susceptibility to FLU (S/R) ([16]; C. albicans DPL001): R
- Susceptibility to FLU (S/R) ([16]; C. albicans R357): R
- Susceptibility to FLU (S/R) ([17]; C. tropicalis CT02): S
- Susceptibility to FLU (S/R) ([17]; C. tropicalis MMX 7255): R
- Susceptibility to FLU (S/R) ([17]; C. tropicalis MMX 7525): R
- Solubility ([11]; vehicle WFI, formulation 2 mg/mL): S
- Susceptibility to FLU (S/R) ([18]; C. glabrata ATCC 200918): R
- Susceptibility to FLU (S/R) ([18]; C. glabrata CG01): S
- Susceptibility to FLU (S/R) ([18]; C. glabrata MMX 7070): R
- Susceptibility to FLU (S/R) ([12]; C. krusei ATCC 6258): R
- Susceptibility to FLU (S/R) ([12]; C. krusei ATCC 14243): R
- Susceptibility to FLU (S/R) ([19]; C. parapsilosis CP01): R
- Susceptibility to FLU (S/R) ([19]; C. parapsilosis CP02): S
- Susceptibility to FLU (S/R) ([19]; C. parapsilosis MMX 7370): R
